These results are taken from patent publication US20100247707A1, “DIPEPTIDES AS FEED ADDITIVES” (EVONIK DEGUSSA GmbH, priority 2009, published 2010).

The test system of data set [1] is digestive enzymes of the Tilapia. Description: In vitro digestion of non-natural dipeptides LD-I / DL-II with digestive enzymes from Tilapia. It counts as in vitro ADME. The note with it: for portion of dipeptide cleaved: after 5 hours, in vitro reaction conditions; for speed of cleavage / digestion: non-natural dipeptides. As to the method:
(§1) For this, the enzymes were isolated from the digestive tracts of the fishes and shrimps. The chemically synthesized dipeptides L-EAA-D-Met (LD-I) and D-Met-L-EAA (DL-II) were then reacted with the enzyme solutions obtained. For better comparability of the digestibilities of dipeptides of various species, identical conditions were selected for the in vitro digestion studies (37° C., pH 9). All non-natural dipeptides L-EAA-D-Met (LD-I) and D-Met-L-EAA (DL-II) are cleaved by digestive enzymes of the omnivorous mirror carp (see FIG. 7), of the herbivorous grass carp (see FIG. 8), of the carnivorous rainbow trout (see FIG. 11), of the omnivorous whiteleg shrimp (see FIG. 10) and of the chicken (see FIG. 17). The cleavages of D-Met-L-EAA (DL-II) proceed somewhat more slowly than the cleavages of the analogous L-EAA-D-Met (LD-I) dipeptides. With digestive enzymes of the Tilapia (see FIG. 9), in contrast, D-Met-L-EAA (DL-II) could be cleaved more quickly than L-EAA-D-Met (LD-I) dipeptides. […] After just 5 hours, under in vitro reaction conditions the bulk of the lysine-containing dipeptides had been cleaved by all of the digestive enzymes used.

The test system of data set [2] is digestive enzymes from whiteleg shrimps. Kind of data set: In vitro digestion of non-natural dipeptides LD-I / DL-II with digestive enzymes from whiteleg shrimps. It counts as in vitro ADME, Litopenaeus vannamei. As to conditions: whiteleg shrimp enzymes; for portion of dipeptide cleaved: after 5 hours, in vitro reaction conditions; for speed of cleavage / digestion: non-natural dipeptides. The protocol:
as §1
a) Isolation of the Digestive Enzymes from Whiteleg Shrimps (Litopenaeus vannamei)
The digestive enzymes were isolated according to the method of Ezquerra and Garcia-Carreno (J. Food Biochem. 1999, 23, 59-74). For this, the hepatopancreas was removed from five kilograms of whiteleg shrimps (Litopenaeus vannamei) and comminuted in a mixer together with crushed ice. Further processing was carried out similarly to Example 18.
(§2) b) Procedure for the In Vitro Digestion Studies
The in vitro investigations were carried out similarly to Example 19 (see Table 8, FIG. 10).

For data set [3], the system named is digestive enzymes from chicken. Description: In vitro digestion of non-natural dipeptides LD-I / DL-II with digestive enzymes from chicken. The note with it: for portion of dipeptide cleaved: after 5 hours, in vitro reaction conditions; for speed of cleavage / digestion: non-natural dipeptides. In kind it is in vitro ADME. As to the method:
as §1
a) Isolation of the Digestive Enzymes from Chicken
The digestive enzymes were isolated according to the method of EID and MATTY (Aquaculture 1989, 79, 111-119). For this, the intestines were removed from a chicken and processed as described in Example 24.
as §2
D-Met-L-EAA (DL-II) or L-EAA-D-Met (LD-I) was taken up in TRIS/HCl buffer solution and the enzyme solution was added. As comparison and to assess the rate of purely chemical cleavage, a blank without enzyme solution was prepared in each case. A sample was taken from time to time and its composition was detected and quantified by means of a calibrated HPLC. The conversion was determined as the quotient of the area of methionine and the area of D-Met-L-EAA (DL-II) or L-EAA-D-Met (LD-I) (see Table 10, FIG. 17).

Data set [4] relates to digestive enzymes from mirror carp. Description: In vitro digestion of non-natural dipeptides LD-I / DL-II with digestive enzymes from mirror carp. In kind it is in vitro ADME, Cyprinus carpio morpha noblis. The note with it: for portion of dipeptide cleaved: after 5 hours, in vitro reaction conditions; for speed of cleavage / digestion: non-natural dipeptides. The protocol: as §1
a) Isolation of the Digestive Enzymes from Mirror Carp (Cyprinus carpio morpha noblis)
The digestive enzymes were isolated according to the method of EID and MATTY (Aquaculture 1989, 79, 111-119). For this, the intestines were removed from five one-year-old mirror carp (Cyprinus carpio morpha noblis) and processed as described in Example 18.
as §2
D-Met-L-EAA (DL-II) or L-EAA-D-Met (LD-I) was taken up in TRIS/HCl buffer solution and the enzyme solution was added. As comparison and to assess the rate of purely chemical cleavage, a blank without enzyme solution was prepared in each case (see Table 4). A sample was taken from time to time and its composition was detected and quantified by means of a calibrated HPLC. The conversion was determined as the quotient of the area of methionine and the area of D-Met-L-EAA (DL-II) or L-EAA-D-Met (LD-I) (see FIG. 7).

The subject of data set [5] is digestive enzymes from rainbow trout. Description: In vitro digestion of non-natural dipeptides LD-I / DL-II with digestive enzymes from rainbow trout. In kind it is in vitro ADME, Oncorhynchus mykiss. As to conditions: for portion of dipeptide cleaved: after 5 hours, in vitro reaction conditions; for speed of cleavage / digestion: non-natural dipeptides. The protocol: as §1
a) Isolation of the Digestive Enzymes from Rainbow Trout (Oncorhynchus mykiss)
The digestive enzymes were isolated according to the method of EID and MATTY (Aquaculture 1989, 79, 111-119). For this, the intestines were removed from six one-year-old rainbow trout (Oncorhynchus mykiss) and processed as described in Example 18.
as §2
The in vitro investigations were carried out similarly to Example 19 (see Table 6, FIG. 11).

Data set [6] deals with digestive enzymes of the herbivorous grass carp. Description: In vitro digestion of non-natural dipeptides LD-I / DL-II with digestive enzymes from grass carp. In kind it is in vitro ADME. As to conditions: for portion of dipeptide cleaved: after 5 hours, in vitro reaction conditions; for speed of cleavage / digestion: non-natural dipeptides. The protocol:
as §1

In a further data set the test system is Litopenaeus vannamei. The note with it: omnivorous shrimps Litopenaeus vannamei, Forster and Dominy 2006; cited from earlier work.
The next data set deals with ruminants. As to conditions: in ruminants, WO00/28835; cited from earlier work.

For the compound `CSCC[C@@H](N)C(=O)N[C@@H](CCCCN)C(=O)O.Cl.Cl` (racemic) [DL-IIe, D-Met-L-Lys×2HCl], the “portion of dipeptide cleaved” value in data set [1], in data set [2], in data set [3], in data set [4], in data set [5] and in data set [6] was “bulk” each time. The “speed of cleavage / digestion” value in data set [1], in data set [2], in data set [3], in data set [4], in data set [5] and in data set [6] was “particularly quickly” throughout.

For the compound `CSCCC(N)C(=O)O` (racemic) [DL-methionine], in the data set with Litopenaeus vannamei, the “effectiveness in feeding tests” value is recorded as “equally as effective as L-methionine”.

As to L-Lys-D-Met×2HCl [LD-Ie], the “portion of dipeptide cleaved” value in data set [1], in data set [2], in data set [3], in data set [4], in data set [5] and in data set [6] was “bulk” in each case. Further, the “speed of cleavage / digestion” value in data set [1], in data set [2], in data set [3], in data set [4], in data set [5] and in data set [6] was “particularly quickly” each time.

For `CSCCC(O)C(=O)OC(C)C` (racemic) [HMBi, racemic iso-propyl ester of MHA], the bioavailability entry with ruminants is reported as “at least 50%”.
